We go through 24 molecules from patent publication US10800757B2, “Inhibitors of TRPC6” (Boehringer Ingelheim International GmbH, priority 2017, dated 2020).

Bounds are passed on as bounds.

Broadly, the IC50 is the point on the concentration scale where inhibition reaches its midpoint.

In the test the target is TRPC6 (Homo sapiens (Human), UniProt Q9Y210). The experiment in a line: High throughput screening assay: fluorescent calcium (Fluo4/AM) assay of TRPC6 channel activation by GSK1702934A in HEK293/TREx cells. The class given is cell-based. The following applies: HEK293/TREx cells stably transfected with TRPC6; agonist GSK1702934A; 7 concentrations 20 μM to 0.027 μM, triplicate. The text has this: This screening assay measures TRPC6 (transient receptor potential cation channel, subfamily C, member 6) ion channel activation via addition either of the commercially available DAG ligand analogue OAG (1-oleoyl-2-acetyl-sn-glycerol) or of the TRPC6 agonist 1-[1-(4,5,6,7,8-pentahydrocyclohepta[2,1-d]thiophen-2-ylcarbonyl)-4-piperidyl]-3-hydrobenzimidazol-2-one (GSK1702934A). The assay utilizes a FLIPR fluorescent calcium sensor 4-(6-Acetoxymethoxy-2,7-difluoro-3-oxo-9-xanthenyl)-4′-methyl-2,2′-(ethylenedioxy)dianiline-N,N,N′,N′-tetraacetic acid tetrakis(acetoxymethyl) ester (Fluo4/AM) […]. Changes (increases) in intracellular membrane calcium concentration potential as measured by the fluorescent signal increase during membrane depolarization provide a measurement of channel activity.
Chain of TRPC6 (Q9Y210 whole entry, species assumed): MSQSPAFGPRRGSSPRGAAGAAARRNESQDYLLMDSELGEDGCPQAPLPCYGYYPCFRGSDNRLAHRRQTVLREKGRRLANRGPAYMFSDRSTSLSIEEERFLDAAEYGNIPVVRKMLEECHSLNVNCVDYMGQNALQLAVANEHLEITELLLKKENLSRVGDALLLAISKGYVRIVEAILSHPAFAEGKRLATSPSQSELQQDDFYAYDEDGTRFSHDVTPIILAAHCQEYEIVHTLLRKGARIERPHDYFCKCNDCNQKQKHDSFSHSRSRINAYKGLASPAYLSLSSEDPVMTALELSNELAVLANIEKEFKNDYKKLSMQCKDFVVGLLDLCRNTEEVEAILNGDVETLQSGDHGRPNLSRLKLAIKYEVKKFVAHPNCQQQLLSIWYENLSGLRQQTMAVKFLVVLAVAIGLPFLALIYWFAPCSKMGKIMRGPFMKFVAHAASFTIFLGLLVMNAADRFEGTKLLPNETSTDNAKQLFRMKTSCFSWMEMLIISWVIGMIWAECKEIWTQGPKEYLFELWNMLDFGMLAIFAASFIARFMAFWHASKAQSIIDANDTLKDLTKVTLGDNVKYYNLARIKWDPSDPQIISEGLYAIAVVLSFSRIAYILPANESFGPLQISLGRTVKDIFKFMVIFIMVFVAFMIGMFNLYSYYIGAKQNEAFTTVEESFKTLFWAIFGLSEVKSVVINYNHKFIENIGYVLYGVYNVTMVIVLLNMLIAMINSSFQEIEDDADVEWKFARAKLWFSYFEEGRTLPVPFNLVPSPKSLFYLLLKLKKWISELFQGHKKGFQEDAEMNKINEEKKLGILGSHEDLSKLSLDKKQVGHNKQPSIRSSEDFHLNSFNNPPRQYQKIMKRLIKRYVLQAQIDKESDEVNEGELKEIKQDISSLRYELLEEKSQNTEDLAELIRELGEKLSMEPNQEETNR
The commercially available HEK293/TREx line (Invitrogen) was stably transfected with a TRPC6 construct and screened by conventional calcium imaging to find clones with TRPC6 expression following stimulation with 1 μg/ml tetracycline. These cells were maintained in the growth medium recommended by the manufacturer supplemented with 100 μg/ml hygromycin to promote retention of the TRPC6 construct. After growing to near confluency, cells were plated at a density of ^˜35,000 cells/well in 384 well CellBind plates (Corning) in the presence of 1 μg/ml tetracycline, and allowed to grow for 20-30 hrs. A nearly confluent monolayer resulted. Growth media was removed from the wells and cells were then loaded with […] Fluo4/AM diluted in Ringer's Solution (6.5 g NaCl, 0.42 g KCl, 0.25 g CaCl2) and 0.2 g of sodium bicarbonate; pH 7.4) supplemented with 1% Pluronic F-127 to a final concentration of 0.5 μM and incubated for 60 min, at room temperature. Dye solution was then removed from the cells by inverting plates with a sharp flick, and replaced with 25 μl Ringer's. Following ^˜0.5 hour for recovery from loading, cells were assayed using the Hamamatsu FDSS 6000 system, which permitted illumination at 485 nm. Frames were acquired at a rate of 0.2 Hz. During the assay, the plates were continuously vortexed, with pipette mixing of wells following addition of each reagent. For the screening assay, 26 μl of a diluted compound stock (at 50 μM) was added to each well for 2 minutes following the collection of a short (4 frame) baseline. 13 μl of agonist solution consisting of 125 nM GSK1702934A diluted in high-Ca2+Ringer solution (containing 90 mm Ca2+) was then added to each well, achieving a final concentration of 20 mm Ca2+ and 10 μM test compound. Data was collected for ^˜3 minutes following addition of high Ca2+Ringer. The fluorescent ratio for each well was divided by the initial fluorescent intensity for that well and the overall response was determined by averaging the fluorescent ratio of the last 4 frames acquired during the experiment excepting the final frame. Negative and Positive controls were included on each plate. Negative controls wells consisted of HEK293/TREx TRPC6 cells exposed to assay buffer and agonist solution, but no test compound. Positive control consisted of wells consisted of HEK293/TREx TRPC6 cells exposed to 25 μM 3-[(2-chlorophenoxy)methyl]phenyl piperidyl ketone (Chembridge) diluted in Ringer's solution and agonist solution. These controls defined zero percent and 100 percent block respectively, and intensity of each well was normalized to these values.
Compounds were tested in triplicate at all concentrations. Standard software was used to fit IC50 curves.
`COc1cc(C(=O)N2CCN(c3ccc(N)nc3)C[C@@H]2CO)ncc1Oc1ccc(F)cc1` [Compound 20, [(R)-4-(6-Amino-pyridin-3-yl)-2-hydroxymethyl-piperazin-1-yl]-[5-(4-fluoro-phenoxy)-4-methoxy-pyridin-2-yl]-methanone]: the IC50 was found to be 42 nM.
As to `COc1cc(C(=O)N2CCC(c3cnc(N)cc3OC)CC2)ncc1OCC1CCC1` [Compound 53, (6-Amino-4-methoxy-3′,4′,5′,6′-tetrahydro-2′H-[3,4′]bipyridinyl-1′-yl)-(5-cyclobutylmethoxy-4-methoxy-pyridin-2-yl)-methanone], the IC50 came out at 210 nM.
Consider `COc1cc(C(=O)N2CCC(c3nnc(N)cc3OC)CC2)ncc1Oc1ccccc1` [Compound 47, 5-Methoxy-6-[1-(4-methoxy-5-phenoxypyridine-2-carbonyl)piperidin-4-yl]pyridazin-3-amine], for which the IC50 was determined as 220 nM.
To `COc1cc(C(=O)N2CCC(c3cnc(N)cc3OC)CC2)ncc1OCC1CC(F)(F)C1` [Compound 45, (6-Amino-4-methoxy-3′,4′,5′,6′-tetrahydro-2′H-[3,4′]bipyridinyl-1′-yl)-[5-(3,3-difluoro-cyclobutylmethoxy)-4-methoxy-pyridin-2-yl]-methanone] belongs 150 nM; to `CCOc1cc(N)nnc1C1CCN(C(=O)c2cc(OC)c(Oc3ccccc3)cn2)CC1` [Compound 85, [4-(6-Amino-4-ethoxy-pyridazin-3-yl)-piperidin-1-yl]-[4-methoxy-5-(phenoxy)-pyridin-2-yl]-methanone], 320 nM; to `COc1cc(C(=O)N2CCN(c3cnc(N)cc3OC)CC2)ncc1Oc1ccc(F)cc1` [Compound 1, 5-{4-[5-(4-Fluorophenoxy)-4-methoxypyridine-2-carbonyl]piperazin-1-yl}-4-methoxypyridin-2-amine], less than 27 nM.
Turning to `COc1cc(C(=O)N2CCC(c3nnc(N)cc3OC)CC2)ncc1Oc1ccc(F)cc1` [Compound 49, [4-(6-Amino-4-methoxy-pyridazin-3-yl)-piperidin-1-yl]-[5-(4-fluoro-phenoxy)-4-methoxy-pyridin-2-yl]-methanone], the IC50 was determined as 250 nM.
As for `COc1ccc(Oc2cnc(C(=O)N3CCN(c4ccc(N)nc4)CC3)cc2OC)cc1` [Compound 12, [4-(6-Amino-pyridin-3-yl)-piperazin-1-yl]-[4-methoxy-5-(4-methoxy-phenoxy)-pyridin-2-yl]-methanone], the IC50 was 27 nM.
To `COc1cc(C(=O)N2CCC(c3ccc(N)nn3)CC2)ncc1OCC(C)(C)C` [Compound 74, [4-(6-Amino-pyridazin-3-yl)-piperidin-1-yl]-[5-(2,2-dimethyl-propoxy)-4-methoxy-pyridin-2-yl]-methanone] belongs 1400 nM; to `COc1cc(C(=O)N2CCC(c3cnc(N)cc3OC)CC2)ncc1Oc1ccccc1` [Compound 23, (6-Amino-4-methoxy-3′,4′,5′,6′-tetrahydro-2′H-[3,4′]bipyridinyl-1′-yl)-(4-methoxy-5-phenoxy-pyridin-2-yl)-methanone], 54 nM.
As for `COc1ccc(Oc2cnc(C(=O)N3CCN(c4ccc(N)nc4)C[C@@H]3CO)cc2OC)cc1` [Compound 82, [(R)-4-(6-Amino-pyridin-3-yl)-2-hydroxymethyl-piperazin-1-yl]-[4-methoxy-5-(4-methoxy-phenoxy)-pyridin-2-yl]-methanone], the IC50 worked out at 180 nM.
Regarding `COc1cc(N)ncc1N1CCN(C(=O)c2ccc(Oc3ccccc3)cn2)[C@@H]([C@H](C)O)C1` [Compound 58, (1S)-1-[(2R)-4-(6-amino-4-methoxypyridin-3-yl)-1-(5-phenoxypyridine-2-carbonyl)piperazin-2-yl]ethan-1-ol], the IC50 is 100 nM.
In the case of `COc1cc(C(=O)N2CCC(c3ccc(N)nn3)CC2)ncc1OCCC1CC1` [Compound 67, [4-(6-Amino-pyridazin-3-yl)-piperidin-1-yl]-[5-(2-cyclopropyl-ethoxy)-4-methoxy-pyridin-2-yl]-methanone], the IC50 stood at 560 nM.
For the molecule `COc1cc(C(=O)N2CCC(c3ccc(N)nn3)CC2)ncc1Oc1ccc(C(F)(F)F)cc1` [Compound 33, [4-(6-Amino-pyridazin-3-yl)-piperidin-1-yl]-[4-methoxy-5-(4-trifluoromethyl-phenoxy)-pyridin-2-yl]-methanone], the IC50 is 82 nM.
To `COc1ccc(Oc2cnc(C(=O)N3CCC(c4ccc(N)nn4)CC3)cc2OC)cc1` [Compound 44, [4-(6-Amino-pyridazin-3-yl)-piperidin-1-yl]-[4-methoxy-5-(4-methoxy-phenoxy)-pyridin-2-yl]-methanone] belongs 140 nM; to `COc1cc(C(=O)N2CCC(c3cnc(N)cc3OC)CC2)ncc1O[C@H](C)C1CC1` [Compound 77, (6-Amino-4-methoxy-3′,4′,5′,6′-tetrahydro-2′H-[3,4′]bipyridinyl-1′-yl)-[5-((R)-1-cyclopropyl-ethoxy)-4-methoxy-pyridin-2-yl]-methanone], 2200 nM; to `COc1cc(C(=O)N2CCC(c3ccc(N)nn3)CC2)ncc1Oc1ccc(F)cc1` [Compound 17, 6-{1-[5-(4-Fluorophenoxy)-4-methoxypyridine-2-carbonyl]piperidin-4-yl}pyridazin-3-amine], 29 nM.
On to `COc1cc(C(=O)N2CCC(c3nnc(N)cc3C)CC2)ncc1Oc1ccccc1` [Compound 31, 6-[1-(4-Methoxy-5-phenoxypyridine-2-carbonyl)piperidin-4-yl]-5-methylpyridazin-3-amine trifluoroacetic acid], for which the IC50 stood at 120 nM.
For `CCOc1cc(C(=O)N2CCC(c3ccc(N)nn3)CC2)ncc1Oc1ccccc1` [Compound 83, [4-(6-Amino-pyridazin-3-yl)-piperidin-1-yl]-[5-(phenoxy)-4-ethoxy-pyridin-2-yl]-methanone], the IC50 came to 98 nM.
For `COc1ccc(Oc2cnc(C(=O)N3CCC(c4cnc(N)cc4OC)CC3)cc2OC)cc1` [Compound 28, (6-Amino-4-methoxy-3′,4′,5′,6′-tetrahydro-2′H-[3,4′]bipyridinyl-1′-yl)-[4-methoxy-5-(4-methoxy-phenoxy)-pyridin-2-yl]-methanone], the IC50 was 100 nM.
For the molecule `COc1cc(C(=O)N2CCC(c3ccc(N)nn3)CC2)ncc1Oc1ccc(OC(F)F)cc1` [Compound 54, [4-(6-Amino-pyridazin-3-yl)-piperidin-1-yl]-[5-(4-difluoromethoxy-phenoxy)-4-methoxy-pyridin-2-yl]-methanone], the IC50 was 220 nM.
To `COc1cc(C(=O)N2C3COCC2CC(c2cnc(N)cc2OC)C3)ncc1Oc1ccccc1` (stereo not drawn) [Compound 68, [7-(6-Amino-4-methoxy-pyridin-3-yl)-3-oxa-9-aza-bicyclo[3.3.1]non-9-yl]-(4-methoxy-5-phenoxy-pyridin-2-yl)-methanone] belongs 630 nM; to `CCCOc1cnc(C(=O)N2CCC(c3cnc(N)cc3OC)CC2)cc1OC` [Compound 46, (6-Amino-4-methoxy-3′,4′,5′,6′-tetrahydro-2′H-[3,4′]bipyridinyl-1′-yl)-(4-methoxy-5-propoxy-pyridin-2-yl)-methanone], 160 nM.
For the molecule `CCOc1cnc(C(=O)N2CCC(c3cnc(N)cc3OC)CC2)cc1OC` [Compound 65, (6-Amino-4-methoxy-3′,4′,5′,6′-tetrahydro-2′H-[3,4′]bipyridinyl-1′-yl)-(5-ethoxy-4-methoxy-pyridin-2-yl)-methanone], the IC50 came to 830 nM.
